Numbers after ± are expanded uncertainties.
Tests used:
[1] = isobaric coefficient of expansion; conditions: 300 K; 101.33 kPa; Crystal; Photoacoustics
[2] = 300 K; 101.33 kPa; Crystal; Photoacoustics

| SMILES | isobaric coefficient of expansion [1] | thermal diffusivity [2] [m2/s] |
| --- | --- | --- |
| [Ag] [silver] | 1.4e-05 ± 1e-06 1/K | 0.000174 ± 1.2e-05 |
| [Al] [aluminum] | 1.5e-05 ± 1e-06 1/K | 9.37e-05 ± 1.6e-06 |
| [Cu] [copper] | 1.3e-05 ± 1e-06 1/K | 0.000116 ± 4e-06 |
